Measurements published in publication PMC8480782, “Efficient Dimerization Disruption of Leishmania infantum Trypanothione Reductase by Triazole-phenyl-thiazoles” (Journal of Medicinal Chemistry, 2021).
“And” between values parts separate entries of the source, which are not always exact repeats. Identical values can stand only once. Like-named read-outs stand apart in the source and are kept apart here.

Key:
TcoTryR = molecular target: T1, TcoTryR (Trypanosoma congolense, UniProt P13110); test: TryR oxidoreductase activity, DTNB-coupled assay (TcoTryR); format: biochemical
T1 construct: HIS; made in house; host or cells: E. coli
T1 sequence (P13110 whole entry): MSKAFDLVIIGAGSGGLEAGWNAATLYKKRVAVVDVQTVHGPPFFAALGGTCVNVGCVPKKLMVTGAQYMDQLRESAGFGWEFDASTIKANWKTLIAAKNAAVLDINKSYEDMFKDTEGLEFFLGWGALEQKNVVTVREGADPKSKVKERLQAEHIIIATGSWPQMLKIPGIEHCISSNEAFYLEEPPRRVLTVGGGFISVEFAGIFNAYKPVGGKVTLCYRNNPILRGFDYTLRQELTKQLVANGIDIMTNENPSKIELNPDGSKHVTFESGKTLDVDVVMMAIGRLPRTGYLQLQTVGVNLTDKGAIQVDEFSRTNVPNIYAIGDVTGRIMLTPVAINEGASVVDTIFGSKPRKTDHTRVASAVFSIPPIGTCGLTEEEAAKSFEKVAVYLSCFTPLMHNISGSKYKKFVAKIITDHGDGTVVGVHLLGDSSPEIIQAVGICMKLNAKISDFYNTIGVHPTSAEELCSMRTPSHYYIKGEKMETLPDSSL
Excerpt: (§1) The DNA coding sequences for Homo sapiens GR, T. brucei TryR, and T. congolense TryR were polymerase chain reaction (PCR)-amplified and cloned in the pRSETA plasmid. The DNA coding for hGR (transcript variant 1; NCBI Reference Sequence: NM_000637.5) was purchased from GeneScript. Genomic DNA from T. congolense parasites was kindly provided by Dr. Stefan Magez (University of Vrije, Brussels). Genomic DNA from the T. brucei S16 cell line was kindly provided by José M. Pérez-Victoria. Instituto de Parasitología y Biomedicina “López—Neyra” CSIC. HIS-tagged recombinant T. brucei and T. congolense TryRs (TbTryR and TcoTryR, respectively) were purified from E. coli as already explained for LiTryR.
(§2) TryR oxidoreductase activity was determined spectrophotometrically using a modified version of the DTNB-coupled assay described by Hamilton et al.[52] Briefly, reactions were carried out at 26 °C in 250 μL of N-(2-hydroxyethyl)piperazine-N′-ethanesulfonic acid (HEPES) buffer (pH 7.5, 40 mM) containing ethylenediaminetetraacetic acid (EDTA) (1 mM), NADP^+ (30 μM), DTNB (25 μM), TS2 (1 μM), NADPH (150 μM), glycerol (0.02%), DMSO (1.75%), and recombinant TryR (7 nM). […] Reactions were started by addition of a mixture of NADPH and TS2.
(§3) TryR oxidoreductase activity was monitored at 26 °C by an increase in absorbance at 412 nm in an EnSpire Multimode Plate Reader (PerkinElmer, Waltham, MA). […] (TNB) concentration was obtained by multiplying the absorbance values by 100 (50 μM TNB generates 0.5 arbitrary units of absorbance at 412 nm). In this DTNB-coupled assay, one molecule of T(SH)2 reduces one molecule of DTNB, producing two TNB molecules. All of the assays were conducted in at least three independent experiments. Data were analyzed using a nonlinear regression model with GraFit 6 software (Erithacus, Horley, Surrey, U.K.).

[1] = test system: THP-1 monocyte-derived macrophages; test: Cytotoxicity in THP-1 monocyte-derived macrophages (LDH activity); format: cell-based, human; settings: Homo sapiens, THP-1; LDH activity
Protocol: THP-1 cells were grown in RPMI-1640 medium (Gibco, Leiden, The Netherlands) supplemented with 10% heat-inactivated FCS, antibiotics, 10 mM HEPES, 2 mM glutamine, and 1 mM sodium pyruvate, pH 7.2, at 37 °C and 5% CO2.
THP-1 monocytes were seeded in a 48-well plate at a concentration of 5 × 10^5 cells/mL (250 μL/well) in RPMI complete medium supplemented with phorbol 12-myristate 13-acetate (PMA) (100 ng/mL). Differentiation of THP-1 monocytes to macrophages was allowed for 24 h at 37 °C and 5% CO2. THP-1-derived macrophages were infected with GFP-expressing axenic amastigotes at 5 × 10^6 parasites/mL in RPMI complete medium for 24 h (250 μL/well). Extracellular amastigotes were washed twice with PBS. The remaining extracellular parasites were challenged for 24 h with THP-1 medium supplemented with 10% horse serum (Gibco) instead of FCS. Cells were washed twice with PBS, and treatments were performed in 250 μL of fresh RPMI medium supplemented with 10% horse serum for 72 h at 37 °C and 5% CO2. Afterward, treatments were removed by two PBS washes. Lysis of infected cells was performed with 120 μL of SDS 0.005% (w/v) in PBS. After a 30 min incubation at 37 °C, lysis was stopped by adding RPMI complete medium with PI at 20 μg/mL (120 μL/well). The lysates were transferred to a 96-well plate (200 μL/well), and the GFP^+ amastigotes extracted from the infected cells were acquired by a Beckman Coulter FC500 flow cytometer. Each sample (100 μL) was acquired for 20 s.
Cytotoxicity of THP-1 infected macrophages was determined using an in-house developed lactate dehydrogenase (LDH) activity assay. LDH activity assays from the remaining cell lysates (100 μL/well) were carried out at 37 °C in 250 μL of Tris/HCl buffer (pH 8.9, 50 mM) containing DL-lactate (840 mM), NAD^+ (450 μM), 1-methoxyphenazine methosulfate (45 μM), and nitro blue tetrazolium chloride (40 μM). The color intensity of the generated formazan dye was monitored at 570 nm using an EnSpire Multimode Plate Reader (PerkinElmer, Waltham, MA). CC50 values were calculated using a nonlinear regression model with GraFit 6 software (Erithacus, Horley, Surrey, U.K.).

TbTryR = molecular target: T2, TbTryR (Trypanosoma brucei brucei, UniProt P39051); test: TryR oxidoreductase activity, DTNB-coupled assay (TbTryR); format: biochemical
T2 construct: HIS; made in house; host or cells: E. coli
T2 sequence (P39051 whole entry): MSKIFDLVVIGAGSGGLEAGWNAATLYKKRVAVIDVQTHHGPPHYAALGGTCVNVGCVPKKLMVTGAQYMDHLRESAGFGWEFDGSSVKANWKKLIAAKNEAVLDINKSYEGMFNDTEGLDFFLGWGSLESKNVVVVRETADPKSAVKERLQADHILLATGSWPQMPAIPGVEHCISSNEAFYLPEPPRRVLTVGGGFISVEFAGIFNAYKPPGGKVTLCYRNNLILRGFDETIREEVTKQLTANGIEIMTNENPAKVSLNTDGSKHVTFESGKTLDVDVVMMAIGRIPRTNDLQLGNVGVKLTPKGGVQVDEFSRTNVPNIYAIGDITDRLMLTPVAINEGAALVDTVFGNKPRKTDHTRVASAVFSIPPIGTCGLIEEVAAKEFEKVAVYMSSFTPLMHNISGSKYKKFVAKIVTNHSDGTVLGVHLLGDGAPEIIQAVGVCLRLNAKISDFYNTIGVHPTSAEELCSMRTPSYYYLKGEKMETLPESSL
Excerpt: as §1, §2, §3

[2] = test system: L. infantum axenic amastigotes; test: Leishmanicidal activity on axenic amastigotes (PI exclusion, flow cytometry); format: cell-based, Leishmania infantum; settings: for SIa (ratio of EC50 against human cells to EC50 against amastigotes): HepG2 / axenic amastigotes; for EC50: Leishmania infantum, read-out: EC50 amastigotes
Method in brief: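 Leishmania infantum axenic amastigotes (MCAN/ES/89/IPZ229/1/89) were cultured at 37 °C in M199 medium, pH 5.4, with 10% heat-inactivated FCS, organic acids, MES, hemin and gentamicine. After compound exposure, parasites were gated by FSC/SSC and live versus dead cells were distinguished by propidium iodide exclusion using flow cytometry. EC50 values came from nonlinear regression in GraFit 6, with triplicates in at least three independent experiments.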

[3] = read-out: IC50, oxidoreductase activity of TbTryR
[4] = axenic amastigotes, 24 h at 37 °C

Row | SMILES | IC50 (TcoTryR) [µM] | EC50 [1] [µM] | IC50 (TbTryR; [3]) [µM] | SIa (ratio of EC50 against human cells to EC50 against amastigotes) [2] | EC50 [2, 4] [µM] | IC50 (TbTryR) [µM] | EC50 ([2]; 24 h) [µM]
1 | NCCCCc1cn(-c2ccc(-c3nc(CCc4ccc5ccccc5c4)cs3)c(OCCN3CCNC3=O)c2)nn1.O=C(O)C(F)(F)F [12b, 1-(2-(5-(4-(4-Ammoniumbutyl)-1H-1,2,3-triazol-1-yl)-2-(4-(2-(naphthalen-2-yl)ethyl)thiazol-2-yl)phenoxy)ethyl)imidazolidin-2-one 2,2,2-Trifluoroacetate] | 4.8 ± 1.9 | > 75 | 9.7 ± 2.1 | 2.2 | 15.3 ± 1.7 | – | –
2 | NCCCCc1cn(-c2ccc(-c3nc(CCc4ccc(-c5ccccc5)cc4)cs3)c(OCCN3CCNC3=O)c2)nn1.O=C(O)C(F)(F)F [12c, 1-(2-(2-(4-(2-([1,1′-Biphenyl]-4-yl)ethyl)thiazol-2-yl)-5-(4-(4-ammoniumbutyl)-1H-1,2,3-triazol-1-yl)phenoxy)ethyl)imidazolidin-2-one 2,2,2-Trifluoroacetate] | 4.8 ± 1.8 | > 75 | 10 ± 2.5 | 3.7 | 11.6 ± 0.8 | – | –
3 | NCCCc1cn(-c2ccc(-c3nc(CCc4ccc(-c5ccccc5)cc4)cs3)c(OCCN3CCNC3=O)c2)nn1.O=C(O)C(F)(F)F [12i] | – | > 75 | – | 11.6 | 5.2 ± 0.3 | – | –
4 | NCCCCc1cn(-c2ccc(-c3nc(-c4ccccc4)cs3)c(OCCN3CCNC3=O)c2)nn1.O=C(O)C(F)(F)F [12n] | 9.3 ± 0.8 | – | 12.5 ± 1.9 | – | 11.5 ± 0.3 | – | –
5 | NCCCCc1cn(-c2ccc(-c3nc(CCc4ccc5c(c4)CCCN5)cs3)c(OCCN3CCNC3=O)c2)nn1.O=C(O)C(F)(F)F.O=C(O)C(F)(F)F [12q] | – | > 75 | – | ND/1.6 | 27 ± 2.8 | – | –
6 | NCCCCc1cn(-c2ccc(-c3nc(CCc4ccc5c(c4)CCO5)cs3)c(OCCN3CCNC3=O)c2)nn1.O=C(O)C(F)(F)F [12r] | 10.1 ± 1.4 | – | – | 1.3 | 22.3 ± 0.6 | 15 ± 2.9 | –
7 | NCCCCc1cn(-c2ccc(-c3nc(CCc4ccc5oc6ccccc6c5c4)cs3)c(OCCN3CCNC3=O)c2)nn1.O=C(O)C(F)(F)F [12s] | – | – | – | ND/>1.1 | – | – | 68.8 ± 3.2
8 | NCCCCc1cn(-c2ccc(-c3nc(-c4ccccc4)c(-c4ccccc4)s3)c(OCCN3CCNC3=O)c2)nn1.O=C(O)C(F)(F)F [19a, 1-(2-(5-(4-(4-Ammoniobutyl)-1H-1,2,3-triazol-1-yl)-2-(4,5-diphenylthiazol-2-yl)phenoxy)ethyl)imidazolidin-2-one 2,2,2-Trifluoroacetate] | 5.6 ± 0.8 | – | 7.3 ± 0.6 | 1.7 | 15.6 ± 3 | – | –
9 | NCCCCc1cn(-c2ccc(-c3nc(-c4ccc(Oc5ccccc5)cc4)c(-c4ccccc4)s3)c(OCCN3CCNC3=O)c2)nn1.O=C(O)C(F)(F)F [19c, 1-(2-(5-(4-(4-Ammoniobutyl)-1H-1,2,3-triazol-1-yl)-2-(4-([4-phenyloxyphenyl]-1-yl)-5-phenylthiazol-2-yl)phenoxy)ethyl)imidazolidin-2-one 2,2,2-Trifluoroacetate] | – | > 75 | – | ND/≥3.3 | 22.6 ± 5.7 | – | –
10 | NCCNCc1nccn1-c1ccc(-c2nc(CCc3ccc4ccccc4c3)cs2)c(OCCN2CCNC2=O)c1 [compound 2, reference compound] | – | 27.9 ± 4.4 | – | 2.1/2.1 | 12.8 ± 1.3 | – | –
11 | NCCNCc1nccn1-c1ccc(-c2nc(CCc3ccc(-c4ccccc4)cc3)cs2)c(OCCN2CCNC2=O)c1 [compound 3, reference compound] | – | 15.5 ± 1.8 | – | 2.7 and 2.7/2.7 | 5.3 ± 0.2 | – | –
12 | NCCCCc1cn(-c2ccc(-c3nc(-c4cccc(-c5csc(-c6ccc(-n7cc(CCCCN)nn7)cc6OCCN6CCNC6=O)n5)c4)cs3)c(OCCN3CCNC3=O)c2)nn1.O=C(O)C(F)(F)F.O=C(O)C(F)(F)F [compound 22, 1,1′-((((1,3-Phenylenebis(thiazole-4,2-diyl))bis(5-(4-(4-ammoniobutyl)-1H-1,2,3-triazol-1-yl)-2,1-phenylene))bis(oxy))bis(ethane-2,1-diyl))bis(imidazolidin-2-one)bis(2,2,2-trifluoroacetate)] | 0.5 ± 0.1 | 48.4 ± 14.5 | 1 ± 0.3 | 6.2 | 4.9 ± 0.2 | – | –
